Values of other authors in patent US10751294B1, “Development of an optimized avanafil-loaded invasomal transdermal film” (King Abdulaziz University, priority 2019, dated 2020).
Like-named read-outs stand apart in the source and are kept apart here.

Key:
[1] = in water, methanol, and ethanol at 25° C.
[2] = not given; remark: listed apart in the source
[3] = not given; remark: listed apart in the source

Compound	solubility [1] [mg/mL]	log P	pKa (acidic) [2]	pKa (basic) [2]	drug permeation enhanced (fold) ([3]; from invasomes)	drug permeation enhanced (fold) ([3]; from transfersomes)
COc1ccc(CN=c2[nH]c(N3CCC[C@H]3CO)ncc2C(=O)NCc2ncccn2)cc1Cl [AVA, Avanafil]	< 1	1.84	11.84	5.89	–	–
O=C(O)CN(CC(=O)O)Cc1cc2c(cc1O)Oc1cc(O)c(CN(CC(=O)O)CC(=O)O)cc1C21OC(=O)c2ccccc21 [calcein]	–	–	–	–	7.2	1.8
